Data reported in US20210147481A1, “PEPTIDE-BASED INHIBITORS OF MARK FAMILY PROTEINS” (Ohio Universtiy, priority 2017, published 2021).
Peptide text beside a SMILES is read from it.

Key:
[1] = test system: kinases that phosphorylate tau at Thr231; test: Immunofluorescence of tau Thr231 phosphorylation in neurons; assay type: cell-based, rat
[2] = biological target: MARK2 (Homo sapiens, UniProt Q7KZI7); test: In vitro phosphorylation assay: inhibition of MARK2-mediated phosphorylation of hTau-K18 (western blot, α-Tau pSer262); assay type: biochemical
Chain of MARK2 (Q7KZI7 whole entry): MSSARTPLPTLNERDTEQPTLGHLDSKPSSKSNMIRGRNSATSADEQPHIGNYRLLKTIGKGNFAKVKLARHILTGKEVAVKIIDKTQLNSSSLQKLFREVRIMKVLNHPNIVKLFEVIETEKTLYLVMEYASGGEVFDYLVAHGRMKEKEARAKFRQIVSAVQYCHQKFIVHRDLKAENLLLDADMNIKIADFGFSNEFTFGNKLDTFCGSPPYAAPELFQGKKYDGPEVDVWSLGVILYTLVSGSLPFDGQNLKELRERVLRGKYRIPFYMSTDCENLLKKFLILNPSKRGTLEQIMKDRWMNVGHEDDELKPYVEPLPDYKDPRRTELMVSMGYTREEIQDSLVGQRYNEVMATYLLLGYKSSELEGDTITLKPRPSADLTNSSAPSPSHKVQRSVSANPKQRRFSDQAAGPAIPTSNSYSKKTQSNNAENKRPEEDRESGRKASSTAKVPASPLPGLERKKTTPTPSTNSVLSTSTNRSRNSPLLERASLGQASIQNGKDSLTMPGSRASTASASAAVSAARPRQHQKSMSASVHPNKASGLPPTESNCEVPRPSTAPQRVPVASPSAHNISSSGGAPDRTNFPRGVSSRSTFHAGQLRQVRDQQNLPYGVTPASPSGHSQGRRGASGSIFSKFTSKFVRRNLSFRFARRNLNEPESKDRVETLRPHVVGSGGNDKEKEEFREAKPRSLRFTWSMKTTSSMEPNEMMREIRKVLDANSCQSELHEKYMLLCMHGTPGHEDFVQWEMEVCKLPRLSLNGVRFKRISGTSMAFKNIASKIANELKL
Description: The ability for MARK2 to phosphorylate hTau K18 was evaluated in vitro by incubating MARK2 with hTau-K18 in the presence or absence of ATP (FIG. 1B). All phosphorylation reactions were carried out for 60 minutes at 32° C. in phosphorylation buffer (50 mM Tris-HCl, 5 mM MgCl2, 2 mM EGTA, 0.5 mM DTT, 0.5 mM benzamidine HCl, 0.5 mM PMSF, pH 8.0). Following the reaction, phosphorylated hTau-K18 proteins were separated by SDS-PAGE and identified by western blot using antibodies specific for hTau pSer262 (FIG. 1B, lanes 1 and 2). As a loading control, total hTau-K18 in each lane was quantified by western blot using antibodies specific for non-phosphorylated hTau-K18 (FIG. 1B, lower image). To ensure that the phosphorylation of hTau-K18 was a result of kinase activity and not auto-phosphorylation by ATP, hTau-K18 was incubated in the absence of MARK2 with or without ATP (FIG. 1B, lanes 3 and 4).
The ability for the tR1 peptide to act as an inhibitor of MARK2-mediated phosphorylation of hTau-K18 in vitro was examined. To test this, MARK2 and hTau-K18 were incubated in the presence of varying concentrations of tR1 for 60 minutes at 32° C. in phosphorylation buffer. Following the reaction, the proteins were separated by SDS-PAGE and identified by Western blot using antibodies specific for hTau pSer262 (FIG. 1C). Total hTau-K18 in each lane was quantified using antibodies specific for non-phosphorylated hTau-K18 (FIG. 1C, lower image).
Phosphorylation assays were performed in 30 μL phosphorylation buffer (50 mM Tris-HCl, 5 mM MgCl2, 2 mM EGTA, 0.5 mM DTT, 0.5 mM benzamidine HCl, 0.5 mM PMSF, pH 8.0) and depending on the experimental conditions. 100 μM ATP, 10 μM hTau K18, 10 nM MARK2, and 10 μM tR1 were added to the reaction mixture. The reaction was carried out for 1 hour at 32° C. […] Images were acquired by a Bio-Rad Gel Doc EZ imager and the band intensity was quantified using Image Lab Software c5.2.1 (Bio-Rad).

[3] = In vitro peptide stability in neurobasal (NB) media (RP-HPLC); assay type: in vitro ADME; conditions: 37° C., up to 24 hours
Description: (§1) Stock peptide solutions for use in stability assays were prepared by dissolving tR1 to a final concentration of 5 mg/mL in dimethyl sulfoxide (DMSO). For stability tests, 2 μL of stock tR1 peptides were added to 198 μL pre-warmed RPMI medium supplemented with 25% (v/v) heat-inactivated human AB serum or neurobasal (NB) media at a final concentration of 50 μg/mL. Each reaction was subsequently incubated at 37° C. for the indicated times. Following incubation, 400 μL aqueous trichloroacetic acid (15%, w/v) was added to each reaction and the samples were immediately cooled on ice for 15 minutes. The samples were then centrifuged 3× at 14,000 rpm to remove precipitated proteins. […] The background signal was subtracted from each respective spectrum and the fraction of intact peptide was quantified from product peak integration normalized to undigested controls. […]
(§2) A major limitation to the therapeutic efficacy of peptides is their susceptibility to proteolytic degradation. Indeed, short peptides generally have a serum half-life measured in minutes. The in vitro stability of tR1 peptides in the presence of proteolytic enzymes was determined. […] Following the incubation, the reactions were quenched using haloacetic acids and the extent of degradation was quantified by analytical HPLC.

[4] = In vitro peptide stability in RPMI medium with 25% (v/v) human serum (RP-HPLC); assay type: in vitro ADME; conditions: 37° C., up to 24 hours
Description: as §1, §2

In the case of `CC[C@H](C)[C@H](NC(=O)[C@H](CCCCN)NC(=O)[C@H](CO)NC(=O)[C@H](CCCCN)NC(=O)[C@@H](NC(=O)[C@H](CC(N)=O)NC(C)=O)C(C)C)C(=O)NCC(=O)N[C@@H](CO)C(=O)N[C@H](C(=O)N[C@@H](CCC(=O)O)C(=O)N[C@@H](CC(N)=O)C(=O)N[C@@H](CC(C)C)C(=O)N[C@@H](CCCCN)C(N)=O)[C@@H](C)O` [tR1, NVKSKIGSTENLK] (Ac-NVKSKIGSTENLK-NH2), the “level of pTau Thr231 compared to untreated control cells” value ([1]; 30 μM tR1 and 100 μM CLQ, no PAO) is reported as “did not show any significant loss of pTau Thr231”, the “effect on PAO-mediated inhibition of tau Thr231 phosphorylation” value ([1]; tR1 with PAO, even in the presence of CLQ) is reported as “did not influence the PAO-mediated inhibition of tau Thr231 phosphorylation” and the “established in vitro inhibitory concentration” value [2] is reported as 10 µM. For the same compound, the inhibition at 50 µM ([2]; 50 μM tR1, 60 minutes at 32° C. in phosphorylation buffer, read-out: inhibition of MARK2 activity (hTau-K18 Ser262 phosphorylation, densitometry)) was no more than 66%, the “concentrations at which tR1 effectively inhibits MARK2-mediated phosphorylation of hTau-K18” value ([2]; 60 minutes at 32° C., western blot) was “greater than 0.5 μM” and the “fraction of intact tR1 (stable)” value [3] was greater than 90%. The remaining at 24 h, 50 μg/mL ([3]; neurobasal (NB) media, read-out: fraction of intact tR1 (stable)) was greater than 90%, the “fraction of intact tR1 (stable)” value [4] was greater than 90% and the remaining at 24 h, 50 μg/mL ([4]; RPMI medium with 25% (v/v) heat-inactivated human AB serum, read-out: fraction of intact tR1 (stable)) was greater than 90%.
